The target in one data set is Human HERG (Homo sapiens, UniProt Q12809). The data set is described as follows: Human Dofetilide Binding Assay.
The next data set has as its target T1, NR2B receptor (Rattus norvegicus, UniProt P35439+Q00960).
T1 construct: Membranes were prepared by homogenization of forebrain of male CD rats; from tissue; host or cells: forebrain of male CD rats (P2 membrane)
As to the kind of experiment: NR2B Binding Assay. The following applies: forebrain P2 membranes of male CD rats; 5 nM [3H] NR2B ligand. How it is done: The activity of the cycloalkylene amide compounds of the present invention, as NR2B antagonists, is determined by their ability to inhibit the binding of NR2B subunit at its receptor sites employing radioactive ligands.
The NR^2B antagonist activity of the cycloalkylene amide compounds is evaluated by using the standard assay procedure described in, for example, J. Pharmacol., 331, pp 117-126, 1997. This method essentially involves determining the concentration of the individual compound required to reduce the amount of radiolabelled NR2B ligands by 50% at their receptor sites, thereby affording characteristic IC50 values for each compound tested. More specifically, the assay is carried out as follows.
Membranes were prepared by homogenization of forebrain of male CD rats weighing between 170˜190 g by using glass-Teflon homogenizer in 0.32 M sucrose at 4° C. The crude nuclear pellet was removed by centrifugation at 1000×g for 10 min, and the supernatant centrifuged at 17000×g for 25 min. The resulting pellet was resuspended in 5 mM Tris acetate pH 7.4 at 4° C. for 10 min to lyse cellular particles and again centrifuged at 17000×g. The resulting pellet (P2 membrane) was washed twice in Tris acetate, resuspended at 5.5 mg protein/ml and stored at −20° C. until use. All the manipulation was done on ice, and stock solution and equipment were kept on ice at all time.
For the saturation assay, receptor saturation was determined by incubating [^3H]-1-[(1S*,2S*)-2-hydroxy-2-(4-hydroxyphenyl)-1-methylethyl]-4-phenylpiperidin-4-ol and 50 μg protein of P2 membrane for 60 minutes at room temperature in a final 100 μl of incubation buffer (50 mM Tris HCl, pH7.4). Total and non-specific bindings (in the presence of 10 μM of unlabeled 1-[(1S*,2S*)-2-hydroxy-2-(4-hydroxyphenyl)-1-methylethyl]-4-phenylpiperidin-4-ol) were determined in a range of [^3H]-1-[(1S*,2S*)-2-hydroxy-2-(4-hydroxyphenyl)-1-methylethyl]-4-phenylpiperidin-4-ol concentrations (0.625 nM to 60 nM).
For the competition assay, test compounds were incubated in duplicate with 5 nM [^3H]-1-[(1S*,2S*)-2-hydroxy-2-(4-hydroxyphenyl)-1-methylethyl]-4-phenylpiperidin-4-ol and 50 μg protein of P2 membrane for 60 minutes at room temperature in a final 100 μl of 50 mM Tris HCl buffer (pH7.4). Nonspecific binding was determined by 10 μM of unlabeled 1-[(1S*,2S*)-2-hydroxy-2-(4-hydroxyphenyl)-1-methylethyl]-4-phenylpiperidin-4-ol (25 μl). The saturation derived KD gained in saturation assay was used for all Ki calculations.
All incubations were terminated by rapid vacuum filtration over 0.2% polyethyleneimine soaked Whatman GF/B glass fibre filter paper using a SKATRON cell harvester followed by three washes with ice-cold filtration buffer (5 mM Tris HCl, pH 7.4.). Receptor-bound radioactivity was quantified by liquid scintillation counting using Packard LS counter. Competition assays were performed by counting Wallac GF/B filters on Betaplate scintillation counter (Wallac).

SMILES strings stand for the structures.

T1 sequence (Q00960 27-1482, other chains not shown): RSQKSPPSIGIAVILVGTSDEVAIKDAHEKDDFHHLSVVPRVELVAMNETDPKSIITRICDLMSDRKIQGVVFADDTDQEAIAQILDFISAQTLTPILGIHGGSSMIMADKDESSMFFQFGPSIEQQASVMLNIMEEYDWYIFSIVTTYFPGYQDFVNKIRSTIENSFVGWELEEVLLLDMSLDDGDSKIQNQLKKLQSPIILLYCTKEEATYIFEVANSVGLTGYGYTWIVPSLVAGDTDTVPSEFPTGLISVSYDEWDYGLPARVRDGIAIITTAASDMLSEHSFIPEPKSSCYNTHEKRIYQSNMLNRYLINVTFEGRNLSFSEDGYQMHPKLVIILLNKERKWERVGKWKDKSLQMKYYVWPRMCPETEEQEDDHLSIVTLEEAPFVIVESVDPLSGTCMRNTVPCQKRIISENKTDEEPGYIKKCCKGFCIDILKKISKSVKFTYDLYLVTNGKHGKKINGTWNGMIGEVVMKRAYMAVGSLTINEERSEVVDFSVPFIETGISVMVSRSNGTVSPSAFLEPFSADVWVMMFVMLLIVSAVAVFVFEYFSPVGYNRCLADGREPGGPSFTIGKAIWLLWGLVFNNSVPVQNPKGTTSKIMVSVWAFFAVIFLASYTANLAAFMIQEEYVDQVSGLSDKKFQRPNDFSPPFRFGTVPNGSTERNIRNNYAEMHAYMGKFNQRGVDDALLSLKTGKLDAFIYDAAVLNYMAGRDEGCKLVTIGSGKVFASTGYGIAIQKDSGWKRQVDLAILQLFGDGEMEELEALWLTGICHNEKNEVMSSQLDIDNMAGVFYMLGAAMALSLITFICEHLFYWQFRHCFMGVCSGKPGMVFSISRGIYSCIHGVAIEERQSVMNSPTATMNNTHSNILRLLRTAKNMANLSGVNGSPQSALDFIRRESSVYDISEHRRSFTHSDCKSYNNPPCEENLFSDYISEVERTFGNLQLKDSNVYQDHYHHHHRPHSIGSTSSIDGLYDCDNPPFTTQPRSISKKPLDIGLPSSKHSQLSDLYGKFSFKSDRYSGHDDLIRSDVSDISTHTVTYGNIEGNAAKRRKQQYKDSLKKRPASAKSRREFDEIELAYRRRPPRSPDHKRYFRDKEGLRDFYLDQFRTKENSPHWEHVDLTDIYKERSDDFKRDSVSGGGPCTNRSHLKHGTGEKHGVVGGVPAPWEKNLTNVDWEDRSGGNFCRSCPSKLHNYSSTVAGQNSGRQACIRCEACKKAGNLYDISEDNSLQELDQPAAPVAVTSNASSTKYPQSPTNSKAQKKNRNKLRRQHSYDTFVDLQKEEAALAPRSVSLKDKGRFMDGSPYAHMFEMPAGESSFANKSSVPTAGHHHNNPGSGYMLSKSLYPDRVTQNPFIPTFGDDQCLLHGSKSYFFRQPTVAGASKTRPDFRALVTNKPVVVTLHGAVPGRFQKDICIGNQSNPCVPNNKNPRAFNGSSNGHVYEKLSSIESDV
Human HERG, sequence (Q12809 whole entry): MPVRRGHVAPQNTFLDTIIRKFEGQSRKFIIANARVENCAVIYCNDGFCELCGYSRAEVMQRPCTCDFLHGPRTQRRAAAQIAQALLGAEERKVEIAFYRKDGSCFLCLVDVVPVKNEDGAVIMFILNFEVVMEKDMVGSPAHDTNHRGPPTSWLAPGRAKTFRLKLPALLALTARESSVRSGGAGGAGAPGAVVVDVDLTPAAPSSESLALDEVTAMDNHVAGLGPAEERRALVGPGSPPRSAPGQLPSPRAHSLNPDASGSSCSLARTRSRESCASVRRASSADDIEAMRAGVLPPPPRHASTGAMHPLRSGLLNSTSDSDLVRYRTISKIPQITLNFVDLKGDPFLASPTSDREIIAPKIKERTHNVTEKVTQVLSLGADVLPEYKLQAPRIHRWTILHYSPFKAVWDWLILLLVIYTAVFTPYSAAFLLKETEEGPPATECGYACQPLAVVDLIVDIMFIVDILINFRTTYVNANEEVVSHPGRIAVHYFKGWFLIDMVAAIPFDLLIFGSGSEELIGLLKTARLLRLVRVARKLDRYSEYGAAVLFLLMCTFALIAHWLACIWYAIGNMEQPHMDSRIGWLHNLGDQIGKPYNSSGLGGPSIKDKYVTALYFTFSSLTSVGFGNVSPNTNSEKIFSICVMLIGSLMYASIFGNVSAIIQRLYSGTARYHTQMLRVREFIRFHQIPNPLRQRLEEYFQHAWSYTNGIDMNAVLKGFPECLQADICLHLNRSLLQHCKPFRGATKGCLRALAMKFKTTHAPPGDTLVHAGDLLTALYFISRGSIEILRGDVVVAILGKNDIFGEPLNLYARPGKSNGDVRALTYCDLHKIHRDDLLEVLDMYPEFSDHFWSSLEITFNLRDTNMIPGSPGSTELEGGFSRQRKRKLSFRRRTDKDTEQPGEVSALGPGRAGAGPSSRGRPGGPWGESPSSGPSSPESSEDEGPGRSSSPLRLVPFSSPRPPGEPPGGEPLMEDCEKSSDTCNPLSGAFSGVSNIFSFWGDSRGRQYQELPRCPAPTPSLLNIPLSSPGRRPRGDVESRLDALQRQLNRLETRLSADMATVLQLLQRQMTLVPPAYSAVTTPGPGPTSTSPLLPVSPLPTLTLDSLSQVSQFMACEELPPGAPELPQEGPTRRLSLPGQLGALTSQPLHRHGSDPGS
Description for Human HERG: Human HERG transfected HEK293S cells were prepared and grown in-house. The collected cells were suspended in 50 mM Tris-HCl (pH 7.4 at 4° C.) and homogenized using a hand held Polytron PT 1200 disruptor set at full power for 20 sec on ice. The homogenates were centrifuged at 48,000×g at 4° C. for 20 min. The pellets were then resuspended, homogenized, and centrifuged once more in the same manner. The final pellets were resuspended in an appropriate volume of 50 mM Tris-HCl, 10 mM KCl, 1 mM MgCl2 (pH 7.4 at 4° C.), homogenized, aliquoted and stored at −80° C. until use. An aliquot of membrane fractions was used for protein concentration determination using BCA protein assay kit (PIERCE) and ARVOsx plate reader (Wallac).
Binding assays were conducted in a total volume of 200 μl in 96-well plates. Twenty μl of test compounds were incubated with 20 μl of [^3H]-dofetilide (Amersham, final 5 nM) and 160 μl of membrane homogenate (25 μg protein) for 60 minutes at room temperature. Nonspecific binding was determined by 10 μM dofetilide at the final concentration. Incubation was terminated by rapid vacuum filtration over 0.5% presoaked GF/B Betaplate filter using Skatron cell harvester with 50 mM Tris-HCl, 10 mM KCl, 1 mM MgCl2, pH 7.4 at 4° C. The filters were dried, put into sample bags and filled with Betaplate Scint. Radioactivity bound to filter was counted with Wallac Betaplate counter.

A word on the IC50: it is the midpoint of a concentration-inhibition curve. The low end stands for greater potency in that assay, the high end for weaker potency in that assay. As to `O=C(NC[C@@H]1CCC[C@H](OCCc2ccccc2)C1)c1cn[nH]c1` (single isomer, unassigned) [Example 116], the IC50 at Human HERG is greater than 100 µM; on NR2B receptor it was 0.0259 µM.
As to `O=C(NC[C@]1(O)CC[C@H](OCc2ccccc2)CC1)c1ccc(O)cc1` [Example 30, N-{[trans-4-(Benzyloxy)-1-hydroxycyclohexyl]methyl}-4-hydroxybenzamide], the IC50 was greater than 100 µM at Human HERG and 0.0236 µM on NR2B receptor.
With `O=C(NC[C@]1(O)CC[C@H](Oc2ccc(Cl)cc2)CC1)c1ccc(O)c(F)c1` [Example 33, N-{[trans-4-(4-Chlorophenoxy)-1-hydroxycyclohexyl]methyl}-3-fluoro-4-hydroxybenzamide], the values for the IC50 at Human HERG and on NR2B receptor were 95.6 µM and 0.0193 µM, respectively.
On the same counts, the results for `O=C(NC[C@H]1CC[C@@H](COc2ccccc2)CO1)c1ccc(O)cc1` [Example 35, (+)-4-Hydroxy-N-{[5S-(phenoxymethyl)tetrahydro-2H-pyran-2S-yl]methyl}benzamide] are 51.6 µM and 0.0209 µM.
For `O=C(NC[C@@H]1CC[C@H](COc2ccccc2)CO1)c1ccc(O)cc1` [Example 36, (−)-4-Hydroxy-N-{[5R-(phenoxymethyl)tetrahydro-2H-pyran-2R-yl]methyl}benzamide], the results for the IC50 on Human HERG and at NR2B receptor were 55.2 µM and 0.0075 µM, respectively.
The corresponding values for `O=C(NC[C@H]1CC[C@@H](COCc2ccccc2)CO1)c1ccc(O)cc1` [Example 39, 4-Hydroxy-N-{[5S-(benzyloxymethyl)tetrahydro-2H-pyran-2S-yl]methyl}benzamide] are greater than 100 µM and 0.0082 µM.
The corresponding values for `O=C(NC[C@@H]1CC[C@H](COCc2ccccc2)CO1)c1ccc(O)cc1` [Example 40, 4-Hydroxy-N-{[5R-(benzyloxymethyl)tetrahydro-2H-pyran-2R-yl]methyl}benzamide] are greater than 100 µM and 0.0104 µM.
On the same counts, the results for `O=C(NC[C@H]1CC[C@@H](COc2ccccc2)OC1)c1ccc(O)cc1` [Example 43, (−)-4-Hydroxy-N-{[(3R,6S)-6-(phenoxymethyl)tetrahydro-2H-pyran-3-yl]methyl}benzamide] are greater than 100 µM and 0.0076 µM.
Consider `O=C(NC[C@]1(O)CC[C@H](COc2ccccc2F)CC1)c1ccc(O)c(F)c1` [Example 65, 3-Fluoro-N-({trans-4-[(2-fluorophenoxy)methyl]-1-hydroxycyclohexyl}methyl)-4-hydroxybenzamide], for which the half-maximal inhibitory concentration (IC50) was greater than 100 µM at Human HERG and 0.01 µM at NR2B receptor.
On the same counts, the results for `O=C(NC[C@]1(O)CC[C@H](Cc2ccccc2)CC1)c1ccc(O)cc1` [Example 68, N-[(trans-4-Benzyl-1-hydroxycyclohexyl)methyl]-4-hydroxybenzamide] are greater than 100 µM and 0.0073 µM.
The corresponding values for `O=C(NC[C@]1(O)CC[C@H](COCc2ccccc2F)CC1)c1ccc(O)c(F)c1` [Example 69, 3-Fluoro-N-[(trans-4-{[(2-fluorobenzyl)oxy]methyl}-1-hydroxycyclohexyl)methyl]-4-hydroxybenzamide] are greater than 100 µM and 0.0132 µM.
On the same counts, the results for `O=C(NC[C@H]1CC[C@@H](COc2ccc(F)cc2)OC1)c1ccc(O)cc1` [Example 74, N-({(3R,6S)-6-[(4-Fluorophenoxy)methyl]tetrahydro-2H-pyran-3-yl}methyl)-4-hydroxybenzamide] are 54.7 µM and 0.0072 µM.
For the compound `O=C(NC[C@H]1CC[C@@H](COc2ccc(F)cc2)CO1)c1ccc(O)cc1` [Example 75, N-({(2R,5R)-5-[(4-Fluorophenoxy)methyl]tetrahydro-2H-pyran-2-yl}methyl)-4-hydroxybenzamide], the values for the half-maximal inhibitory concentration (IC50) on Human HERG and on NR2B receptor were 26.8 µM and 0.0062 µM, respectively.
As to `O=C(NC[C@@H]1CC[C@H](COc2ccc(F)cc2)CO1)c1ccc(O)cc1` [Example 76, N-({(2S,5S)-5-[(4-Fluorophenoxy)methyl]tetrahydro-2H-pyran-2-yl}methyl)-4-hydroxybenzamide], the IC50 at Human HERG was determined as 27.7 µM; at NR2B receptor, 0.0293 µM.
Regarding `O=C(NC[C@H]1CC[C@@H](OCCOc2ccccc2)CC1)c1ccc(O)cc1` [Example 78], the results for the IC50 at Human HERG and at NR2B receptor were 40.8 µM and 0.0054 µM, respectively.
On the same counts, the results for `O=C(NC[C@]1(O)CC[C@H](Cc2ccc(F)cc2)CC1)c1ccc(O)c(F)c1` [Example 80, 3-Fluoro-N-{[trans-4-(4-fluorobenzyl)-1-hydroxycyclohexyl]methyl}-4-hydroxybenzamide] are greater than 100 µM and 0.0089 µM.
The corresponding values for `O=C(NC[C@]1(O)CC[C@H](Cc2ccc(F)cc2)CC1)c1ccc(O)cc1` [Example 81, N-{[trans-4-(4-Fluorobenzyl)-1-hydroxycyclohexyl]methyl}-4-hydroxybenzamide] are 35.7 µM and 0.0095 µM.
On to `O=C(NC[C@H]1CC[C@@H](COc2ccccn2)CC1)c1ccc(O)c(F)c1` [Example 89, 3-Fluoro-4-hydroxy-N-({cis-4-[(pyridin-2-yloxy)methyl]cyclohexyl}methyl)benzamide], for which the IC50 at Human HERG is greater than 100 µM; at NR2B receptor, 0.009 µM.
On the same counts, the results for `O=C(NC[C@H]1CC[C@@H](OCCOc2ccc(F)cc2)CC1)c1cn[nH]c1` [Example 90, N-({cis-4-[2-(4-Fluorophenoxy)ethoxy]cyclohexyl}methyl)-1H-pyrazole-4-carboxamide] are greater than 100 µM and 0.0052 µM.
Take `O=C(NC[C@H]1CC[C@@H](CCOc2ccccc2)CC1)c1cc(F)c(O)c(F)c1` [Example 91, 3,5-Difluoro-4-hydroxy-N-{[cis-4-(2-phenoxyethyl)cyclohexyl]methyl}benzamide]: the IC50 at Human HERG is greater than 30 µM; on NR2B receptor, 0.013 µM.
Regarding `O=C(NC[C@H]1CC[C@@H](OCCOc2ccc(F)cc2)CC1)c1ccc(O)nc1` [Example 95], the IC50 on Human HERG is greater than 100 µM; on NR2B receptor it was 0.004 µM.
By melting point is commonly meant the temperature, or range, at which the solid turns liquid. With `O=C(NC[C@H]1CC[C@@H](CCOc2ccccc2)CC1)c1c[nH]nn1` [Example 104, N-{[cis-4-(2-Phenoxyethyl)cyclohexyl]methyl}-1H-1,2,3-triazole-4-carboxamide], the melting point turned out to be 141.2 °C.
Take `O=C(NC[C@H]1CC[C@@H](COc2ccccn2)CC1)c1cn[nH]c1` [Example 105, N-({cis-4-[(Pyridin-2-yloxy)methyl]cyclohexyl}methyl)-1H-pyrazole-4-carboxamide]: the IC50 on Human HERG is greater than 100 µM; at NR2B receptor, 0.0272 µM.
Take `O=C(NC[C@H]1CC[C@@H](COc2ccc(F)cc2)CC1)c1cn[nH]c1` [Example 109, N-({cis-4-[(4-Fluorophenoxy)methyl]cyclohexyl}methyl)-1H-pyrazole-4-carboxamide]: the melting point is 147.1 °C.
The same measure, in the same setting: under `O=C1CCc2cc(C(=O)NC[C@H]3CC[C@@H](Cc4ccccc4)CC3)ccc2N1` [Example 118, N-[(cis-4-Benzylcyclohexyl)methyl]-2-oxo-1,2,3,4-tetrahydroquinoline-6-carboxamide] stands 188.5 °C.
The compound `O=C(NC[C@H]1CC[C@@H](Cc2ccccc2)CC1)c1ccc2nc(O)ccc2c1` [Example 122, N-[(cis-4-Benzylcyclohexyl)methyl]-2-hydroxyquinoline-6-carboxamide] gave a melting point of 236.7 °C.

The values above are taken from patent US20070167452A1, “Therapeutic amide derivatives” (PFIZER, INC., priority 2004, published 2007).
